In this assay the target is EGFR WT (Homo sapiens (Human), UniProt P00533). In words: ErbB enzyme assay (CisBio HTRF-KinEASE-TK), EGFR WT. The class given is biochemical. The settings on record: ATP at Km (25 μM), 1 h incubation. The method, boiled down:
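IC50 comes from a 4-parameter fit where the curve crosses 50 percent of control, using the 655/620 nm time-resolved fluorescence ratio with DMSO-only and pre-quenched references. Kinase reactions ran 1 h at ambient temperature before Sa-XL665/cryptate-antibody detection (1 h).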
In general terms: In TR-FRET formats the signal depends on donor and acceptor labels being close together.

Bounds are passed on as bounds.

Sequence of EGFR WT (P00533 25-1210): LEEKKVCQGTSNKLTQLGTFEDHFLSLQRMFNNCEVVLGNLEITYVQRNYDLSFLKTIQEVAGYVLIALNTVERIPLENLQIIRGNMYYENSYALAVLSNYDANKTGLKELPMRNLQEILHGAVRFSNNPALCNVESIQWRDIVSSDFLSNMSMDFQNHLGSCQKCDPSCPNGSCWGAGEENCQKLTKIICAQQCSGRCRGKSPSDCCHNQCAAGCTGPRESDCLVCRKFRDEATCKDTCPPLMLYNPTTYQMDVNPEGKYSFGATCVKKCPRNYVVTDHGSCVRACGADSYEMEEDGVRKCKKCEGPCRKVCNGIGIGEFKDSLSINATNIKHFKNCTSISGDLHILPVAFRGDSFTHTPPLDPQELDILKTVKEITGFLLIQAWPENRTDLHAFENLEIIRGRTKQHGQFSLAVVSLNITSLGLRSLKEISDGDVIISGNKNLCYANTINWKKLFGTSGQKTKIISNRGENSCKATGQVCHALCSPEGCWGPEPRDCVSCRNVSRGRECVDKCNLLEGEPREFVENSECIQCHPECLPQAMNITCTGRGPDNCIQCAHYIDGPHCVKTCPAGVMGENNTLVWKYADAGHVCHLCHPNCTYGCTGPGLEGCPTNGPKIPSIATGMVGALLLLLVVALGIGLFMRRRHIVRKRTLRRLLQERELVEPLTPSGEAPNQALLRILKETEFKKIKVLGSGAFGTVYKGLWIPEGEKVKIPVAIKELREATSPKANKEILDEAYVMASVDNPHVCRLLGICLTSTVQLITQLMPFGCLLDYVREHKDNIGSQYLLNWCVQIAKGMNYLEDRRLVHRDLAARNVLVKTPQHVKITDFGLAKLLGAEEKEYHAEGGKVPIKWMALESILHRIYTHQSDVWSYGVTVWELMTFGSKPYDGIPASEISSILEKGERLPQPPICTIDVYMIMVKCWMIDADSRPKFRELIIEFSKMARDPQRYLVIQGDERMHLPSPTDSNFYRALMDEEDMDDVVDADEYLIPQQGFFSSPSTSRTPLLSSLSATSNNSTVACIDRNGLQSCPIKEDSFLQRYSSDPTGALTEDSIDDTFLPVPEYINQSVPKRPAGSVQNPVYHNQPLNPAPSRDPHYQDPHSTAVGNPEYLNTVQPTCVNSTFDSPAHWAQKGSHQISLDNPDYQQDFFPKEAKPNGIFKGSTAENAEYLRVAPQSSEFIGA

`C=CC(=O)N1CCN(c2ccc3ncnc(Nc4cc(C)c(Oc5ccc6c(c5)nnn6C)cc4OC)c3n2)CC1` [Compound 79, 1-(4-(4-((2-methoxy-5-methyl-4-((1-methyl-1H-benzo[d][1,2,3]triazol-5-yl)oxy)phenyl)amino)pyrido[3,2-d]pyrimidin-6-yl)piperazin-1-yl)prop-2-en-1-one]: the IC50 (commonly the point on the concentration scale where inhibition reaches its midpoint) is 100 to 500 nM.

Take `C=CC(=O)N1CCN(c2ccc3ncnc(Nc4ccc(Oc5cc6nnn(C)c6c(F)c5C)c(C)c4F)c3n2)C[C@H]1C` [Compound 293, (R)-1-(4-(4-((2-fluoro-4-((7-fluoro-1,6-dimethyl-1H-benzo[d][1,2,3]triazol-5-yl)oxy)-3-methylphenyl)amino)pyrido[3,2-d]pyrimidin-6-yl)-2-methylpiperazin-1-yl)prop-2-en-1-one]: the IC50 fell in the range of 100 to 500 nM. The result for `C=CC(=O)N1C2CCC1CN(c1ncc3ncnc(Nc4ccc(Oc5ccc6c(c5)nnn6C)c(C)c4)c3n1)C2` [Compound 47, 1-(3-(8-((3-methyl-4-((1-methyl-1H-benzo[d][1,2,3]triazol-5-yl)oxy)phenyl)amino)pyrimido[5,4-d]pyrimidin-2-yl)-3,8-diazabicyclo[3.2.1]octan-8-yl)prop-2-en-1-one] reads 100 to 500 nM; that for `C=CC(=O)N1CCN(c2ncc3ncnc(Nc4ccc(Oc5cc(F)c6c(c5)nnn6C)c(C)c4)c3n2)C[C@H]1C` [Compound 171, (R)-1-(4-(8-((4-((7-fluoro-1-methyl-1H-benzo[d][1,2,3]triazol-5-yl)oxy)-3-methylphenyl)amino)pyrimido[5,4-d]pyrimidin-2-y1)-2-methylpiperazin-1-yl)prop-2-en-1-one], 50 to 100 nM; that for `C=C(F)C(=O)N1CC2CCC1CN2c1ncc2ncnc(Nc3ccc(Oc4ccc5c(c4)nnn5C)c(C)c3)c2n1` (stereo not drawn) [Compound 50, 2-fluoro-1-(5-(8-((3-methyl-4-((1-methyl-1H-benzo[d][1,2,3]triazol-5-yl)oxy)phenyl)amino)pyrimido[5,4-d]pyrimidin-2-yl)-2,5-diazabicyclo[2.2.2]octan-2-yl)prop-2-en-1-one], no less than 1000 nM. Compound `C=CC(=O)N1CCN(c2ccc3ncnc(Nc4cc(Cl)c(Oc5ccc6c(c5)nnn6C)cc4F)c3n2)CC1` [Compound 244, 1-(4-(4-((5-chloro-2-fluoro-4-((1-methyl-1H-benzo[d][1,2,3]triazol-5-yl)oxy)phenyl)amino)pyrido[3,2-d]pyrimidin-6-yl)piperazin-1-yl)prop-2-en-1-one] came in with an IC50 of 100 to 500 nM.

Consider `C=C(F)C(=O)N1CCN(c2ccc3ncnc(Nc4ccc(Oc5ccc6c(c5)nnn6C)c(C)c4)c3n2)C[C@@H]1CC#N` [Compound 85, (S)-2-(1-(2-fluoroacryloyl)-4-(4-((3-methyl-4-((1-methyl-1H-benzo[d][1,2,3]triazol-5-yl)oxy)phenyl)amino)pyrido[3,2-d]pyrimidin-6-yl)piperazin-2-yl)acetonitrile], for which the IC50 fell in the range of 500 to 1000 nM. As for `Cc1cc(Nc2ncnc3ccc(N4CC[C@@H](C)N(C(=O)/C=C/C(F)F)CC4)nc23)ccc1Oc1ccn2ncnc2c1` [Compound 367, (R,E)-1-(4-(4-((4-([1,2,4]triazolo[1,5-a]pyridin-7-yloxy)-3-methylphenyl)amino)pyrido[3,2-d]pyrimidin-6-yl)-7-methyl-1,4-diazepan-1-y1)-4,4-difluorobut-2-en-1-one], the half-maximal inhibitory concentration (IC50) lay within 500 to 1000 nM.

`C=CC(=O)N[C@H]1C[C@@H](C)CN(c2ncc3ncnc(Nc4ccc(Oc5ccc6c(c5)nnn6C)c(C)c4F)c3n2)C1` (single isomer, unassigned) [Compound 204] yielded an IC50 of 50 to 100 nM. With `C=CC(=O)N1CC2CCC(C1)N2c1ccc2ncnc(Nc3ccc(Oc4ccc5c(c4)nnn5C)c(C)c3)c2n1` [Compound 71, 1-(8-(4-((3-methyl-4-((1-methyl-1H-benzo[d][1,2,3]triazol-5-yl)oxy)phenyl)amino)pyrido[3,2-d]pyrimidin-6-yl)-3,8-diazabicyclo[3.2.1]octan-3-yl)prop-2-en-1-one] the figure was less than 50 nM.

In turn, `C=CC(=O)N1CCN(c2ccc3ncnc(Nc4ccc(Oc5cc6ncnn6cn5)c(C)c4)c3n2)C[C@H]1C` [Compound 329, (R)-1-(4-(4-((4-([1,2,4]triazolo[1,5-c]pyrimidin-7-yloxy)-3-methylphenyl)amino)pyrido[3,2-d]pyrimidin-6-yl)-2-methylpiperazin-1-yl)prop-2-en-1-one] registered an IC50 of 50 to 100 nM.

Take `C=CC(=O)N[C@@H]1[C@@H]2C[C@H]1CN(c1ncc3ncnc(Nc4ccc(Oc5ccc6c(c5)nnn6C)c(C)c4)c3n1)C2` [Compound 208, N-((1R,5S,6s)-3-(8-((3-methyl-4-((1-methyl-1H-benzo[d][1,2,3]triazol-5-yl)oxy)phenyl)amino)pyrimido[5,4-d]pyrimidin-2-yl)-3-azabicyclo[3.1.1]heptan-6-yl)acrylamide]: the IC50 was no less than 1000 nM. The result for `C=CC(=O)N1CC(Oc2ncc3ncnc(Nc4ccc(Oc5cc(F)c6c(c5)ncn6C)c(C)c4)c3n2)C1` [Compound 388, 1-(3-((8-((4-((7-fluoro-1-methyl-1H-benzo[d]imidazol-5-yl)oxy)-3-methylphenyl)amino)pyrimido[5,4-d]pyrimidin-2-yl)oxy)azetidin-1-yl)prop-2-en-1-one] reads less than 50 nM. The result for `C=CC(=O)N1CCN(c2ccc3ncnc(Nc4ccc(Oc5ccc6c(c5)ncn6C(F)F)c(C)c4)c3n2)C[C@H]1C` [Compound 340, (R)-1-(4-(4-((4-((1-(difluoromethyl)-1H-benzo[d]imidazol-5-yl)oxy)-3-methylphenyl)amino)pyrido[3,2-d]pyrimidin-6-yl)-2-methylpiperazin-1-yl)prop-2-en-1-one] reads 50 to 100 nM.

Compound `C=CC(=O)N1CCC2(CC1)CN(c1ncc3ncnc(Nc4ccc(Oc5ccc6c(c5)nnn6C)c(C)c4)c3n1)C2` [Compound 14, 1-(2-(8-((3-methyl-4-((1-methyl-1H-benzo[d][1,2,3]triazol-5-yl)oxy)phenyl)amino)pyrimido[5,4-d]pyrimidin-2-y1)-2,7-diazaspiro[3.5]nonan-7-yl)prop-2-en-1-one] had an IC50 of no less than 1000 nM. As to `C=C(COC)C(=O)NC1(C)CCN(c2ncc3ncnc(Nc4ccc(Oc5ccc6c(c5)nnn6C)c(C)c4)c3n2)CC1` [Compound 215, 2-(methoxy-methyl)-N-(4-methyl-1-(8-((3-methyl-4-((1-methyl-1H-benzo[d][1,2,3]triazol-5-yl)oxy)phenyl)amino)pyrimido [5,4-d]pyrimidin-2-yl)piperidin-4-yl)acrylamide], the IC50 is no less than 1000 nM.

In turn, `C=CC(=O)N[C@@]1(C)CCCN(c2ncc3ncnc(Nc4ccc(Oc5ccc6c(c5)nnn6C)c(C)c4)c3n2)C1` [Compound 146, (S)-N-(3-methyl-1-(8-((3-methyl-4-((1-methyl-1H-benzo[d][1,2,3]triazol-5-yl)oxy)phenyl)amino)pyrimido[5,4-d]pyrimidin-2-yl)piperidin-3-yl)acrylamide] displayed an IC50 of 500 to 1000 nM. With `C=CC(=O)N1CC[C@H](Oc2ncc3ncnc(Nc4ccc(Oc5cc(F)c6c(c5)ncn6C)c(C)c4)c3n2)C1` [Compound 389, (S)-1-(3-((8-((4-((7-fluoro-1-methyl-1H-benzo[d]imidazol-5-yl)oxy)-3-methylphenyl)amino)pyrimido[5,4-d]pyrimidin-2-yl)oxy)pyrrolidin-1-yl)prop-2-en-1-one] the figure was less than 50 nM.
